# Assay results taken from PMC6263940 (Nature chemical biology, 2018).
# Molecular target: T1, ABHD12 (Mus musculus, UniProt Q99LR1)
# T1 sequence (Q99LR1 1-398): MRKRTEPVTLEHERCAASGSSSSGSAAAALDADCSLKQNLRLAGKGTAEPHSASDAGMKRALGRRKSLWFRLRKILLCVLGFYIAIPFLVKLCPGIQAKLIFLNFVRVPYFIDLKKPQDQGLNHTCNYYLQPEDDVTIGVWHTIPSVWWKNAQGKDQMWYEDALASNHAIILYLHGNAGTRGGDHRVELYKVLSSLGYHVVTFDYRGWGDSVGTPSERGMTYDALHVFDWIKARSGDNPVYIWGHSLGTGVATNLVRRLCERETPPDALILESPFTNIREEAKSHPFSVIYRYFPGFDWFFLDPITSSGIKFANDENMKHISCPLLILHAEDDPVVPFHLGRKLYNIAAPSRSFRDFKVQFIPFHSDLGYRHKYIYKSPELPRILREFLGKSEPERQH
# Experiment: ABHD12-dependent lyso-PS lipase activity of mouse brain membrane proteome
# Type: biochemical
structure (smiles),measurement,value
"FC(F)(F)Oc1ccc(Oc2ccnc(N3CCC(NC(=S)Nc4cccnc4)CC3)c2Cl)c(Cl)c1 [DO264, N-3-pyridyl-N’-(1-[3-chloro-4-{2-chloro-4-(trifluoromethoxy)phenoxy}pyridine-2-yl]piperidin-4-yl)thiourea]",IC50,2.8 nM
